The results in this text go back to patent US11814367B2, “Inhibitors of glycogen synthase 1 (GYS1) and methods of use thereof” (Maze Therapeutics, Inc., priority 2021, dated 2023).

Assay [1] deals with hGYS1 enzyme (recombinant hGYS1/GN1 protein) (Homo sapiens (Human), UniProt P13807). Put plainly: GYS1 coupled enzyme assay (PK/LDH). The assay is classed as biochemical. The conditions noted are these: hGYS1/GN1 50 nM, UDP-Glucose 0.8 mM, G6P 1 mM; geometric mean of at least 2 runs.
In assay [2] the test system is hGYS1 enzyme / glycogen synthesis in HeLa cells. Put plainly: GYS1 cell based assay (glycogen synthesis, Glucose-glo). Set-up: species or system human. The conditions noted are these: Homo sapiens, HeLa, 24 h, 24 h incubation, 20 mM glucose, geometric mean of at least 2 runs. In short, it runs like this:
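HeLa cells starved 24 h in medium containing only 1× Glutamax were plated onto compound in medium with 20 mM glucose (1% DMSO final) for 24 h, 37 °C, 5% CO2. Acid lysates were Tris-quenched, glucoamylase-digested (pH 5.3, 1 h, 37 °C) and read by Glucose-glo luminescence. IC50 came from Hill fits, as geometric mean of ≥2 runs.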

Assay [3] deals with hGYS2 enzyme (recombinant hGYS2/GN1 protein) (Homo sapiens (Human), UniProt P54840). Put plainly: GYS2 coupled enzyme assay (PK/LDH). The assay is classed as biochemical. The conditions noted are these: geometric mean of at least 2 assay runs on separate days, read-out: Avg_IC50. The method in brief:
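Read-out: NADH loss at 340 nm, read each minute for 10 min, slope normalized to controls, duplicate % inhibition fit to Hill (0–100). Enzyme: 200 nM hGYS2/GN1; substrate 2 mM UDP-glucose plus 0.2% glycogen and 2 mM G6P; pH 7.5 Tris, 2.5% DMSO.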

Chain of hGYS1 enzyme (recombinant hGYS1/GN1 protein) (P13807 whole entry): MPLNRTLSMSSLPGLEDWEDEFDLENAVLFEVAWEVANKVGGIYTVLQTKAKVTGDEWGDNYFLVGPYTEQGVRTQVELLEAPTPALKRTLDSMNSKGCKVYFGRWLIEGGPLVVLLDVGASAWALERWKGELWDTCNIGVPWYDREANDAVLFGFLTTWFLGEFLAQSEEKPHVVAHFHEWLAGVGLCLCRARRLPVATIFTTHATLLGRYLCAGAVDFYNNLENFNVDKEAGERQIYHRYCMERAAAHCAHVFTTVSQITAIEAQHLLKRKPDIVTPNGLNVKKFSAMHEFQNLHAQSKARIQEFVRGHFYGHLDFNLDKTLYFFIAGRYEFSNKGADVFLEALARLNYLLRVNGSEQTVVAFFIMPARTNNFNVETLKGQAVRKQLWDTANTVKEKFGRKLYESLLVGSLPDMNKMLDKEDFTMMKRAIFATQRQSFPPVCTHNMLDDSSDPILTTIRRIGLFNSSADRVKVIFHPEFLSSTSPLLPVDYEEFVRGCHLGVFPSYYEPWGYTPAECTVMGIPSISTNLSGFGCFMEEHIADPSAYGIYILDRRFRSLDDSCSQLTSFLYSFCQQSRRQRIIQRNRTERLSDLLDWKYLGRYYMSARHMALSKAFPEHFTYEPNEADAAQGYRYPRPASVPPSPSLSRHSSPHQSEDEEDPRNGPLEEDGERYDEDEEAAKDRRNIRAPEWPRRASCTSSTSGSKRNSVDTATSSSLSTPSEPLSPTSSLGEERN
Chain of hGYS1 enzyme (recombinant hGYS1/GN1 protein) (P46976 whole entry partner): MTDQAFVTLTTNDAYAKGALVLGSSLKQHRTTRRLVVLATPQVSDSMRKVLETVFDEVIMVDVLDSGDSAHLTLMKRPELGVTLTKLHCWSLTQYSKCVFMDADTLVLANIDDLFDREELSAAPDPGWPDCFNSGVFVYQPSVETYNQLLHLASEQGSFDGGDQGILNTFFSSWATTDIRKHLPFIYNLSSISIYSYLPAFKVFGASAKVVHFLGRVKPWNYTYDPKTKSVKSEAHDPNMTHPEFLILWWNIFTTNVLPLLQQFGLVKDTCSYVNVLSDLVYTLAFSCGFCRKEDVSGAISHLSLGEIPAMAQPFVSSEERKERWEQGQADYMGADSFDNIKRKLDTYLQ
Chain of hGYS2 enzyme (recombinant hGYS2/GN1 protein) (P54840 whole entry): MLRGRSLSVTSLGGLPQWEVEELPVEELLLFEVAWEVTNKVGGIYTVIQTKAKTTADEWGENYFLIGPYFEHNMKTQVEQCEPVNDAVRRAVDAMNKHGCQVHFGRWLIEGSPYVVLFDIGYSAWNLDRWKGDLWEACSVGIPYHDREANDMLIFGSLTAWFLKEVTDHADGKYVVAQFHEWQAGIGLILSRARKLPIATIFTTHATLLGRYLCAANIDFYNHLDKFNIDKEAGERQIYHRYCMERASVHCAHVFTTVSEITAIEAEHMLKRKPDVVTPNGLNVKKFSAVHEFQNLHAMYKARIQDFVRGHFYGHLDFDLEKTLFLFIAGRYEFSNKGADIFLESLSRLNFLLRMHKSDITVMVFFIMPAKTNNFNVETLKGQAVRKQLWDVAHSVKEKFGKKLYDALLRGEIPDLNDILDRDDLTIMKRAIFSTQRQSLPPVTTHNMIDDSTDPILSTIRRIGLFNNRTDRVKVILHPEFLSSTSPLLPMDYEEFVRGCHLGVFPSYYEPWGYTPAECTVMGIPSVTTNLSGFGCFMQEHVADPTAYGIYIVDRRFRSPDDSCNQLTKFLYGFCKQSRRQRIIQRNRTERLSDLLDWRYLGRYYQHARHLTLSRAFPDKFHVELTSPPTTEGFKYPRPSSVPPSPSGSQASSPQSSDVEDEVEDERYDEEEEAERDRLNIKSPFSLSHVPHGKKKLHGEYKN
Chain of hGYS2 enzyme (recombinant hGYS2/GN1 protein) (P46976 whole entry partner): as the sequence (P46976 whole entry partner) above

Turning to `Cc1cc(CC(=O)N2C[C@H](F)C[C@H]2C(=O)N[C@@H](c2ccccc2)c2ccc(C(C)C)c(F)n2)c[nH]c1=O` [Compound 784, (2S,4R)-4-fluoro-N-[(S)-[6-fluoro-5-(propan-2-yl)pyridin-2-yl](phenyl)methyl]-1-[2-(5-methyl-6-oxo-1,6-dihydropyridin-3-yl)acetyl]pyrrolidine-2-carboxamide], the IC50 in assay [1] was 5 nM; in assay [2], 310 nM; in assay [3], > 100000 nM.
On to `CC(C)c1ccc([C@@H](NC(=O)[C@@H]2C[C@@H](F)CN2C(=O)Cn2ccc(=O)[nH]c2=O)c2ccccc2)nc1F` [Compound 785, (2S,4R)-1-[2-(2,4-dioxo-1,2,3,4-tetrahydropyrimidin-1-yl)acetyl]-4-fluoro-N-[(S)-[6-fluoro-5-(propan-2-yl)pyridin-2-yl](phenyl)methyl] pyrrolidine-2-carboxamide], for which the IC50 in assay [1] is 6 nM; in assay [2], 130 nM; in assay [3], > 100000 nM.
For `CCn1c(=O)ccn(CC(=O)N2C[C@H](F)C[C@H]2C(=O)N[C@@H](c2ccccc2)c2ccc(C(C)C)c(F)n2)c1=O` [Compound 786, (2S,4R)-1-[2-(3-ethyl-2,4-dioxo-1,2,3,4-tetrahydropyrimidin-1-yl)acetyl]-4-fluoro-N-[(S)-[6-fluoro-5-(propan-2-yl)pyridin-2-yl](phenyl)methyl] pyrrolidine-2-carboxamide], the IC50 was 3 nM in assay [1], 50 nM in assay [2] and > 100000 nM in assay [3].
On to `CC(C)c1ccc([C@@H](NC(=O)[C@@H]2C[C@@H](F)CN2C(=O)Cn2cc(C(F)(F)F)cn2)c2ccccc2)nc1F` [Compound 788], for which the values for the IC50 in assay [1], in assay [2] and in assay [3] were 20 nM, 340 nM and > 100000 nM, respectively.
Take `CC(C)c1ccc([C@@H](NC(=O)[C@@H]2C[C@@H](F)CN2C(=O)Cn2ccc(C(F)F)n2)c2ccccc2)nc1F` [Compound 789, (2S,4R)-1-{2-[3-(difluoromethyl)-1H-pyrazol-1-yl]acetyl}-4-fluoro-N-[(S)-[6-fluoro-5-(propan-2-yl)pyridin-2-yl](phenyl)methyl] pyrrolidine-2-carboxamide]: the IC50 in assay [1] was 10 nM; in assay [2], 280 nM; in assay [3] it was > 100000 nM.
For `CC(C)c1ccc([C@@H](NC(=O)[C@@H]2C[C@@H](F)CN2C(=O)Cn2ccc(C(F)(F)F)n2)c2ccccc2)nc1F` [Compound 790, (2S,4R)-4-fluoro-N-[(S)-[6-fluoro-5-(propan-2-yl)pyridin-2-yl](phenyl)methyl]-1-{2-[3-(trifluoromethyl)-1H-pyrazol-1-yl]acetyl} pyrrolidine-2-carboxamide] the same measures were 8 nM, 250 nM and > 100000 nM.
The corresponding values for `CC(C)c1ccc([C@@H](NC(=O)[C@@H]2C[C@@H](F)CN2C(=O)Cc2ccc(=O)[nH]c2)c2ccccc2)nc1F` [Compound 791, (2S,4R)-4-fluoro-N-[(S)-[6-fluoro-5-(propan-2-yl)pyridin-2-yl](phenyl)methyl]-1-[2-(6-oxo-1,6-dihydropyridin-3-yl)acetyl]pyrrolidine-2-carboxamide] are 7 nM, 390 nM and > 100000 nM.
The corresponding values for `CCn1cc(CC(=O)N2C[C@H](F)C[C@H]2C(=O)N[C@@H](c2ccccc2)c2ccc(C(C)C)c(F)n2)ccc1=O` [Compound 792, (2S,4R)-1-[2-(1-ethyl-6-oxo-1,6-dihydropyridin-3-yl)acetyl]-4-fluoro-N-[(S)-[6-fluoro-5-(propan-2-yl)pyridin-2-yl](phenyl)methyl] pyrrolidine-2-carboxamide] are 6 nM, 210 nM and > 100000 nM.
`CC(C)c1ccc([C@@H](NC(=O)[C@@H]2C[C@@H](F)CN2C(=O)Cc2ccc[nH]c2=O)c2ccccc2)nc1F` [Compound 793, (2S,4R)-4-fluoro-N-[(S)-[6-fluoro-5-(propan-2-yl)pyridin-2-yl](phenyl)methyl]-1-[2-(2-oxo-1,2-dihydropyridin-3-yl)acetyl]pyrrolidine-2-carboxamide]: the IC50 in assay [1] was 12 nM; in assay [2] it was 580 nM; in assay [3] it was > 100000 nM.
For `CCn1c(=O)c(C)cn(CC(=O)N2C[C@H](F)C[C@H]2C(=O)N[C@@H](c2ccccc2)c2ccc(C(C)C)c(F)n2)c1=O` [Compound 794, (2S,4R)-1-[2-(3-ethyl-5-methyl-2,4-dioxo-1,2,3,4-tetrahydropyrimidin-1-yl)acetyl]-4-fluoro-N-[(S)-[6-fluoro-5-(propan-2-yl)pyridin-2-yl](phenyl)methyl] pyrrolidine-2-carboxamide], the figures for the IC50 in assay [1], in assay [2] and in assay [3] were 2 nM, 40 nM and > 100000 nM, respectively.
`CCn1cccc(CC(=O)N2C[C@H](F)C[C@H]2C(=O)N[C@@H](c2ccccc2)c2ccc(C(C)C)c(F)n2)c1=O` [Compound 795, (2S,4R)-1-[2-(1-ethyl-2-oxo-1,2-dihydropyridin-3-yl)acetyl]-4-fluoro-N-[(S)-[6-fluoro-5-(propan-2-yl)pyridin-2-yl](phenyl)methyl] pyrrolidine-2-carboxamide]: the IC50 was 11 nM in assay [1], 240 nM in assay [2] and > 100000 nM in assay [3].
